Where two headings read alike, the source gives them in different places. Marks after values point to notes of the source that are not given here.
Assays:
[1] = Measurement of LogP values by HPLC on reversed phase columns (EEC directive 79/831 Annex V.A8); format: physicochemical; settings: for chromatographic logP: method [a]: LC-UV, acidic range, 0.1% formic acid in water and acetonitrile as eluent
Method: Measurement of Log P values was performed as outlined above.

Uromyces appendiculatus = assay: In vivo preventive test on Uromyces appendiculatus (bean rust), Examples G and R7; settings: 264 h, 500 ppm of active ingredient, bean, preventive spray, evaluated 11 days after inoculation, read-out: efficacy
Puccinia recondita = assay: In vivo preventive test on Puccinia recondita (brown rust on wheat), Examples C and R3; settings: Puccinia recondita, 264 h; 500 ppm of active ingredient; wheat, preventive spray, evaluated 11 days after inoculation; read-out: efficacy
Septoria tritici = assay: In vivo preventive test on Septoria tritici (leaf spot on wheat), Examples E, Q3 and R5; settings: Zymoseptoria tritici, 576 h, 500 ppm of active ingredient; wheat, preventive spray, evaluated 24 days after inoculation; read-out: efficacy
Sphaerotheca fuliginea = assay: In vivo preventive test on Sphaerotheca fuliginea (powdery mildew on cucurbits), Examples F and R6; settings: Podosphaera fuliginea, 360 h; 500 ppm of active ingredient; gherkin, preventive spray, evaluated 15 days after inoculation; read-out: efficacy
Pyrenophora teres = assay: In vivo preventive test on Pyrenophora teres (net blotch on barley), Examples D, Q2 and R4; settings: Pyrenophora teres, 336 h; for pest or weed control at 100 ppm: Example R4, rate of application 100 ppm
[2] = 500 ppm of active ingredient, preventive spray, evaluated 14 days after inoculation, read-out: efficacy
[3] = Table 2, compounds of formula (XVII)
[4] = Example R4, rate of application 500 ppm, read-out: Efficacy in %

Row | Structure (SMILES) | chromatographic logP ([1]; Table 1) | pest or weed control at 500 ppm (Uromyces appendiculatus) | pest or weed control at 500 ppm (Puccinia recondita) | pest or weed control at 500 ppm (Septoria tritici) | pest or weed control at 500 ppm (Sphaerotheca fuliginea) | chromatographic logP [1, 3] | also measured
1 | Cc1cncn1CC(O)(Cc1cccnc1Cl)C1(Cl)CC1 (stereo not drawn) [Example I-10] | 1.22 | 90 to 100% | 80 to 89% |  |  |  | 
2 | O=Cc1cncn1CC(O)(Cc1ccccc1Cl)C1(Cl)CC1 (stereo not drawn) [Example I-12] |  | 90 to 100% | 80 to 89% | 90 to 100% | 90 to 100% |  | pest or weed control at 500 ppm (Pyrenophora teres; [2]): 90 to 100%
3 | N#Cc1cncn1CC(O)(C(F)c1ccccc1Cl)C1(Cl)CC1 (stereo not drawn) [Example I-24] | 2.82 | 90 to 100% | 80 to 89% | 90 to 100% | 90 to 100% |  | 
4 | OC(Cn1cncc1Cl)(C(F)c1ccccc1F)C1(Cl)CC1 (stereo not drawn) [Example I-28] | 2.01 | 70 to 79% | 80 to 89% | 80 to 89% | 90 to 100% |  | 
5 | COc1cncn1CC(O)(Cc1ccccc1F)C1(Cl)CC1 (stereo not drawn) [Example I-35] | 1.67 |  |  | 90 to 100% |  |  | 
6 | OC(Cc1ccccc1F)(Cn1cncc1C1CC1)C1(Cl)CC1 (stereo not drawn) [Example I-37] | 1.86 |  | 80 to 89% | 90 to 100% |  |  | 
7 | N#Cc1cncn1CC(O)(Cc1cc(Br)ncc1Br)C1(Cl)CC1 (stereo not drawn) [Example I-47] | 2.73 | 90 to 100% | 80 to 89% |  | 90 to 100% |  | 
8 | N#Cc1cncn1CC(O)(Cc1ccnc(Br)c1Br)C1(Cl)CC1 (stereo not drawn) [Example I-48] |  | 90 to 100% | 80 to 89% | 90 to 100% | 90 to 100% |  | pest or weed control at 500 ppm (Pyrenophora teres; [2]): 70 to 79%
9 | Cc1ccc(CC(O)(Cn2cncc2C#N)C2(Cl)CC2)c(C)c1 (stereo not drawn) [Example I-51] |  | 80 to 89% | 90 to 100% | 90 to 100% | 90 to 100% |  | pest or weed control at 500 ppm (Pyrenophora teres; [2]): 90 to 100%
10 | N#Cc1cncn1CC(O)(Cc1ccncc1Cl)C1(Cl)CC1 (stereo not drawn) [Example I-57] | 1.88 | 90 to 100% | 90 to 100% | 90 to 100% | 90 to 100% |  | 
11 | N#Cc1cncn1CC(O)(Cc1cc(Cl)cc(Cl)c1)C1(Cl)CC1 (stereo not drawn) [Example I-58] | 3.55 | 90 to 100% | 80 to 89% | 80 to 89% | 90 to 100% |  | 
12 | OC(Cc1ccnc(Cl)c1Cl)(Cn1cncc1Cl)C1(Cl)CC1 (stereo not drawn) [Example I-67] | 2.08 | 90 to 100% | 80 to 89% |  | 90 to 100% |  | 
13 | Cc1ccc(CC(O)(Cn2cncc2Cl)C2(Cl)CC2)c(C)c1 (stereo not drawn) [Example I-68] | 2.69 | 90 to 100% | 70 to 79% |  |  |  | 
14 | OC(Cc1cc(Cl)nc(Cl)c1)(Cn1cncc1Cl)C1(Cl)CC1 (stereo not drawn) [Example I-74] | 2.23 | 90 to 100% |  | 90 to 100% | 90 to 100% |  | 
15 | Nc1cncn1CC(O)(Cc1ccccc1Cl)C1(Cl)CC1 (stereo not drawn) [Example I-78] | 1.5 |  |  | 80 to 89% | 80 to 89% |  | 
16 | OC(Cc1ccccc1C(F)(F)F)(Cn1cncc1Cl)C1(Cl)CC1 (stereo not drawn) [Example I-89] | 2.62 | 90 to 100% | 80 to 89% |  | 90 to 100% |  | pest or weed control at 500 ppm (Pyrenophora teres; [2]): 80 to 89%
17 | N#Cc1cncn1CC(O)(Cc1ccc(F)c(F)c1F)C1CCC1 (stereo not drawn) [Example I-104] | 2.78 | 90 to 100% | 90 to 100% | 90 to 100% | 90 to 100% |  | 
18 | CC(C)C(O)(Cc1ccc(F)c(F)c1F)Cn1cncc1C#N (stereo not drawn) [Example I-105] | 2.78 |  | 70 to 79% | 70 to 79% | 90 to 100% |  | 
19 | N#Cc1cncn1CC(O)(Cc1ccc(F)c(F)c1F)CC1CC1 (stereo not drawn) [Example I-106] | 2.73 | 90 to 100% | 80 to 89% | 90 to 100% | 90 to 100% |  | 
20 | NC(=O)c1cncn1CC(O)(Cc1ccc(Cl)cc1F)C1CC1 (stereo not drawn) [Example I-116] | 1.49 |  |  | 90 to 100% | 90 to 100% |  | 
21 | N#Cc1cncn1CC(O)(Cc1ccc(Cl)cc1F)C1CCC1 (stereo not drawn) [Example I-117] | 3.31 | 90 to 100% | 90 to 100% | 90 to 100% | 90 to 100% |  | 
22 | N#Cc1cncn1CC(O)(Cc1ccc(Cl)cc1F)CC1CC1 (stereo not drawn) [Example I-120] |  | 90 to 100% | 90 to 100% | 70 to 79% | 90 to 100% |  | pest or weed control at 500 ppm (Pyrenophora teres; [2]): 70 to 79%
23 | CCOC(Cc1ccc(Cl)cc1F)(Cn1cncc1Cl)C1(Cl)CC1 (stereo not drawn) [Example I-122] | 3.1 | 90 to 100% | 80 to 89% | 90 to 100% | 90 to 100% |  | 
24 | C=CCOC(Cc1ccc(Cl)cc1F)(Cn1cncc1Cl)C1(Cl)CC1 (stereo not drawn) [Example I-123] | 3.31 | 80 to 89% | 80 to 89% | 90 to 100% | 90 to 100% |  | 
25 | N#Cc1cncn1CC(O)(Cc1ccccc1F)CC1CC1 (stereo not drawn) [Example I-141] | 2.45 | 90 to 100% | 90 to 100% | 90 to 100% | 90 to 100% |  | 
26 | Cc1cccc(CC(O)(Cn2cncc2Cl)C2(Cl)CC2)c1F (stereo not drawn) [Example I-143] | 2.35 |  | 90 to 100% | 90 to 100% | 90 to 100% |  | pest or weed control at 500 ppm (Pyrenophora teres; [2]): 70 to 79%

Row | Structure (SMILES) | chromatographic logP ([1]; Table 1) | pest or weed control at 500 ppm (Uromyces appendiculatus) | pest or weed control at 500 ppm (Puccinia recondita) | pest or weed control at 500 ppm (Septoria tritici) | pest or weed control at 500 ppm (Sphaerotheca fuliginea) | chromatographic logP [1, 3] | also measured
27 | N#Cc1cncn1CC(O)(Cc1cccc(F)c1F)C1CCC1 (stereo not drawn) [Example I-148] | 2.57 | 90 to 100% | 90 to 100% | 90 to 100% |  |  | pest or weed control at 500 ppm (Pyrenophora teres; [2]): 80 to 89%
28 | O=C(Cc1ccccc1)c1cncn1CC(O)(Cc1ccccc1)C1(Cl)CC1 (stereo not drawn) [Example I-169] | 3.56 | 70 to 79% | 70 to 79% | 70 to 79% | 90 to 100% |  | 
29 | N#Cc1cncn1CC(=O)C1(Cl)CC1 [XVII-2, 1-[2-(1-chlorocyclopropyl)-2-oxoethyl]-1H-imidazole-5-carbonitrile] |  |  |  |  |  | 1.35 | 
30 | N#Cc1cncn1CC(=O)C1CC1 [XVII-3] |  |  |  |  |  | 0.74 | 
31 | N#Cc1cncn1CC(=O)C1(F)CC1 [XVII-4] |  |  |  |  |  | 1.05 | 
32 | O=C(Cn1cncc1F)C1(Cl)CC1 [XVII-5] |  |  |  |  |  | 0.32 | 
33 | COC(=O)c1cncn1CC(=O)C1(Cl)CC1 [XVII-6] |  |  |  |  |  | 1.2 | 
34 | CC(C)(C)C(=O)Cn1cncc1C#N [XVII-7] |  |  |  |  |  | 1.47 | 
35 | CC(C)(Cl)C(=O)Cn1cncc1C#N [XVII-8] |  |  |  |  |  |  | LogP [1]: 1.65^[a]
36 | N#Cc1cncn1CC(=O)C1(C#N)CC1 [XVII-9] |  |  |  |  |  | 0.9 | 
37 | O=C(Cn1cncc1I)C1(Cl)CC1 [XVII-10] |  |  |  |  |  | 0.7 | 
38 | CC(C)(F)C(=O)Cn1cncc1C#N [XVII-11] |  |  |  |  |  | 1.31 | 
39 | N#Cc1cncn1CC(=O)CC1CC1 [XVII-12] |  |  |  |  |  | 1.27 | 
40 | CC(C)(C)CC(=O)Cn1cncc1C#N [XVII-13] |  |  |  |  |  | 1.88 | 
41 | CC(C)C(=O)Cn1cncc1C#N [XVII-14] |  |  |  |  |  | 1.14 | 
42 | N#Cc1cncn1CC(=O)C1CCCC1 [XVII-15] |  |  |  |  |  | 1.57 | 
43 | N#Cc1cncn1CC(=O)C1(F)CCCC1 [XVII-16] |  |  |  |  |  | 1.81 | 
44 | N#Cc1cncn1CC(=O)C1CCC1 [XVII-17] |  |  |  |  |  | 1.26 | 
45 | N#Cc1cncn1CC(=O)C1(Cl)CCC1 [XVII-18] |  |  |  |  |  | 1.86 | 
46 | CCCCC(=O)Cn1cncc1C#N [XVII-19] |  |  |  |  |  | 1.6 | 
47 | OC(Cc1ccccc1Cl)(Cn1cnc(Br)c1)C1(Cl)CC1 (stereo not drawn) [drawing 106, reference compound] |  |  |  |  |  |  | pest or weed control at 100 ppm (Pyrenophora teres; read-out: Efficacy in %): 0%; pest or weed control at 500 ppm (Pyrenophora teres; [4]): 0%
48 | N#Cc1cn(CC(O)(Cc2ccccc2Cl)C2(Cl)CC2)cn1 (stereo not drawn) [drawing 108, reference compound] |  |  |  |  |  |  | pest or weed control at 100 ppm (Pyrenophora teres; read-out: Efficacy in %): 0%; pest or weed control at 500 ppm (Pyrenophora teres; [4]): 0%
49 | C#Cc1cn(CC(O)(Cc2ccccc2F)C2(Cl)CC2)cn1 (stereo not drawn) [drawing 110, reference compound] |  |  |  |  |  |  | pest or weed control at 100 ppm (Pyrenophora teres; read-out: Efficacy in %): 0%; pest or weed control at 500 ppm (Pyrenophora teres; [4]): 0%
50 | OC(Cc1ccccc1F)(Cn1cnc(Cl)c1)C1(Cl)CC1 (stereo not drawn) [drawing 112, reference compound] |  |  |  |  |  |  | pest or weed control at 100 ppm (Pyrenophora teres; read-out: Efficacy in %): 0%; pest or weed control at 500 ppm (Pyrenophora teres; [4]): 0%
51 | OC(Cc1ccccc1F)(Cn1ccnc1Cl)C1(Cl)CC1 (stereo not drawn) [drawing 113, reference compound] |  |  |  |  |  |  | pest or weed control at 100 ppm (Pyrenophora teres; read-out: Efficacy in %): 0%; pest or weed control at 500 ppm (Pyrenophora teres; [4]): 0%
52 | N#Cc1cn(CC(O)(Cc2ccccc2F)C2(Cl)CC2)cn1 (stereo not drawn) [drawing 121, reference compound] |  |  |  |  |  |  | pest or weed control at 100 ppm (Pyrenophora teres; read-out: Efficacy in %): 0%; pest or weed control at 500 ppm (Pyrenophora teres; [4]): 0%
